Test results from patent publication US12077503B2, “Substituted cyclic amides and their use as herbicides” (FMC CORPORATION, priority 2015, dated 2024).

Experiments:
Type in all cases: in vivo
[1] = test system: ducksalad (Heteranthera limosa); test: Test B flooded paddy test; settings: Heteranthera limosa, 250 g ai/ha, Flood; 0 to 100 scale where 0 is no effect and 100 is complete control; read-out: Ducksalad plant response rating
Procedure, shortened: (§1)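 Percent control, visually estimated after 13–15 d in the greenhouse on a 0–100 basis, compares treated pots with untreated ones; compound was put into paddy water 3 cm above the soil when plants had two leaves.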

[2] = test system: barnyardgrass (Echinochloa crus-galli); test: Test B flooded paddy test; settings: Echinochloa crus-galli, 250 g ai/ha, Flood; 0 to 100 scale where 0 is no effect and 100 is complete control; read-out: Barnyardgrass plant response rating
Procedure, shortened: as §1

[3] = test system: sedge, umbrella (small-flower umbrella sedge, Cyperus difformis); test: Test B flooded paddy test; settings: Cyperus difformis, 250 g ai/ha, Flood; 0 to 100 scale where 0 is no effect and 100 is complete control; read-out: Sedge, Umbrella plant response rating
Procedure, shortened: as §1

[4] = test system: rice (Oryra sativa); test: Test B flooded paddy test; settings: Oryza sativa, 250 g ai/ha, Flood; 0 to 100 scale where 0 is no effect and 100 is complete control; read-out: Rice plant response rating
Procedure, shortened: as §1

[5] = test system: ryegrass, Italian (Italian ryegrass, Lolium multiflorum); test: Test A postemergence; settings: Lolium multiflorum, post-emergence, 240 h; for pest or weed control at 125 g/ha: 125 g ai/ha, postemergence, visual injury vs untreated controls after approx. 10 d, 0 = no effect, 100 = complete control, read-out: Ryegrass, Italian plant response rating (0 to 100 scale); for pest or weed control at 500 g/ha: Postemergence, 500 g ai/ha, visual injury, 0 to 100 scale (0 no effect, 100 complete control), approx. 10 d, read-out: Plant response rating, Ryegrass, Italian
Procedure, shortened: (§2)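 Visual injury, scored on a 0–100 scale relative to untreated controls, was recorded about 10 d after application. Treatments were a preemergence soil spray over planted seeds or a postemergence spray on plants at the one- to two-leaf stage, 2 to 10 cm tall, all in loam soil–sand blend in the greenhouse.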

[6] = test system: ragweed (common ragweed, Ambrosia elatior); test: Test A postemergence; settings: Ambrosia artemisiifolia, post-emergence, 240 h; for pest or weed control at 125 g/ha: 125 g ai/ha, postemergence, visual injury vs untreated controls after approx. 10 d, 0 = no effect, 100 = complete control, read-out: Ragweed plant response rating (0 to 100 scale); for pest or weed control at 500 g/ha: Postemergence, 500 g ai/ha, visual injury, 0 to 100 scale (0 no effect, 100 complete control), approx. 10 d, read-out: Plant response rating, Ragweed
Procedure, shortened: as §2

[7] = test system: pigweed (Amaranthus retroflexus); test: Test A postemergence; settings: Amaranthus retroflexus, post-emergence, 240 h; for pest or weed control at 125 g/ha: 125 g ai/ha, postemergence, visual injury vs untreated controls after approx. 10 d, 0 = no effect, 100 = complete control, read-out: Pigweed plant response rating (0 to 100 scale); for pest or weed control at 500 g/ha: Postemergence, 500 g ai/ha, visual injury, 0 to 100 scale (0 no effect, 100 complete control), approx. 10 d, read-out: Plant response rating, Pigweed
Procedure, shortened: as §2

[8] = test system: Kochia (Kochia scoparia); test: Test A postemergence; settings: Bassia scoparia, post-emergence, 240 h; for pest or weed control at 125 g/ha: 125 g ai/ha, postemergence, visual injury vs untreated controls after approx. 10 d, 0 = no effect, 100 = complete control, read-out: Kochia plant response rating (0 to 100 scale); for pest or weed control at 500 g/ha: Postemergence, 500 g ai/ha, visual injury, 0 to 100 scale (0 no effect, 100 complete control), approx. 10 d, read-out: Plant response rating, Kochia
Procedure, shortened: as §2

[9] = test system: giant foxtail (Setaria faberii); test: Test A postemergence; settings: Setaria faberi, post-emergence, 240 h; for pest or weed control at 125 g/ha: 125 g ai/ha, postemergence, visual injury vs untreated controls after approx. 10 d, 0 = no effect, 100 = complete control, read-out: Foxtail, Giant plant response rating (0 to 100 scale); for pest or weed control at 500 g/ha: Postemergence, 500 g ai/ha, visual injury, 0 to 100 scale (0 no effect, 100 complete control), approx. 10 d, read-out: Plant response rating, Foxtail, Giant
Procedure, shortened: as §2

[10] = test system: blackgrass (Alopecurus myosuroides); test: Test A postemergence; settings: Alopecurus myosuroides, post-emergence, 240 h; for pest or weed control at 125 g/ha: 125 g ai/ha, postemergence, visual injury vs untreated controls after approx. 10 d, 0 = no effect, 100 = complete control, read-out: Blackgrass plant response rating (0 to 100 scale); for pest or weed control at 500 g/ha: Postemergence, 500 g ai/ha, visual injury, 0 to 100 scale (0 no effect, 100 complete control), approx. 10 d, read-out: Plant response rating, Blackgrass
Procedure, shortened: as §2

[11] = test system: barnyardgrass (Echinochloa crus-galli); test: Test A postemergence; settings: Echinochloa crus-galli, post-emergence, 240 h; for pest or weed control at 125 g/ha: 125 g ai/ha, postemergence, visual injury vs untreated controls after approx. 10 d, 0 = no effect, 100 = complete control, read-out: Barnyardgrass plant response rating (0 to 100 scale); for pest or weed control at 500 g/ha: Postemergence, 500 g ai/ha, visual injury, 0 to 100 scale (0 no effect, 100 complete control), approx. 10 d, read-out: Plant response rating, Barnyardgrass
Procedure, shortened: as §2

[12] = test system: wheat (Triticum aestivum); test: Test A postemergence; settings: Triticum aestivum, post-emergence, 240 h; for plant injury at 125 g/ha: 125 g ai/ha, postemergence, visual injury vs untreated controls after approx. 10 d, 0 = no effect, 100 = complete control, read-out: Wheat plant response rating (0 to 100 scale); for plant injury at 500 g/ha: Postemergence, 500 g ai/ha, visual injury, 0 to 100 scale (0 no effect, 100 complete control), approx. 10 d, read-out: Plant response rating, Wheat
Procedure, shortened: as §2

[13] = test system: Galium (catchweed bedstraw, Galium aparine); test: Test A postemergence; settings: Galium, post-emergence, 240 h; for pest or weed control at 125 g/ha: 125 g ai/ha, postemergence, visual injury vs untreated controls after approx. 10 d, 0 = no effect, 100 = complete control, read-out: Galium plant response rating (0 to 100 scale); for pest or weed control at 500 g/ha: Postemergence, 500 g ai/ha, visual injury, 0 to 100 scale (0 no effect, 100 complete control), approx. 10 d, read-out: Plant response rating, Galium
Procedure, shortened: as §2

[14] = test system: corn (Zea mays); test: Test A postemergence; settings: Zea mays, post-emergence, 240 h; for plant injury at 125 g/ha: 125 g ai/ha, postemergence, visual injury vs untreated controls after approx. 10 d, 0 = no effect, 100 = complete control, read-out: Corn plant response rating (0 to 100 scale); for Corn plant response rating (crop injury, 0 = no effect, 100 = complete kill) at 500 g/ha: Postemergence, 500 g ai/ha, visual injury, 0 to 100 scale (0 no effect, 100 complete control), approx. 10 d
Procedure, shortened: as §2

[15] = test system: ryegrass, Italian (Italian ryegrass, Lolium multiflorum); test: Test A preemergence; settings: Lolium multiflorum, pre-emergence, 240 h, preemergence, 0 to 100 scale where 0 is no effect and 100 is complete control, read-out: Ryegrass, Italian plant response rating; for pest or weed control at 125 g/ha: 125 g ai/ha, visual injury rating, approximately 10 d; for pest or weed control at 500 g/ha: 500 g ai/ha
Procedure, shortened: as §2

SMILES	pest or weed control at 250 g/ha [1] [%]	pest or weed control at 250 g/ha [2] [%]	pest or weed control at 250 g/ha [3] [%]	pest or weed control at 250 g/ha [4] [%]	pest or weed control at 125 g/ha [5] [%]	pest or weed control at 500 g/ha [5] [%]	pest or weed control at 125 g/ha [6] [%]	pest or weed control at 500 g/ha [6] [%]	pest or weed control at 125 g/ha [7] [%]	pest or weed control at 500 g/ha [7] [%]	pest or weed control at 125 g/ha [8] [%]	pest or weed control at 500 g/ha [8] [%]	pest or weed control at 125 g/ha [9] [%]	pest or weed control at 500 g/ha [9] [%]	pest or weed control at 125 g/ha [10] [%]	pest or weed control at 500 g/ha [10] [%]	pest or weed control at 125 g/ha [11] [%]	pest or weed control at 500 g/ha [11] [%]	plant injury at 500 g/ha [12] [%]	pest or weed control at 125 g/ha [13] [%]	also measured
Cc1cc([C@H]2CNC(=O)[C@@H]2C(=O)Nc2ccccc2S(C)(=O)=O)ccc1Cl [Compound 1246]	100	0	0	0	0	0	10	60	0	20	0	20	20	20	0	40	50	80	40	50	plant injury at 125 g/ha [12]: 0%; pest or weed control at 500 g/ha [13]: 60%; plant injury at 125 g/ha [14]: 0%; Corn plant response rating (crop injury, 0 = no effect, 100 = complete kill) at 500 g/ha [14]: 40%; pest or weed control at 125 g/ha [15]: 0%; pest or weed control at 500 g/ha [15]: 50%
CN1C[C@H](c2cccc(C(F)(F)F)c2)[C@@H](C(=O)Nc2ccc(F)cc2C(F)(F)F)C1=O [Compound 1250]	100	50	0	0	20	50	0	0	0	30	0	20	80	80	20	60	70	90	70	40	plant injury at 125 g/ha [12]: 40%; pest or weed control at 500 g/ha [13]: 60%; plant injury at 125 g/ha [14]: 40%; Corn plant response rating (crop injury, 0 = no effect, 100 = complete kill) at 500 g/ha [14]: 70%; pest or weed control at 125 g/ha [15]: 50%; pest or weed control at 500 g/ha [15]: 50%
CN1C[C@H](c2ccc(C(F)(F)F)cc2)[C@@H](C(=O)Nc2ccccc2)C1=O [Compound 1253]	100	40	0	0	40	60	0	0	0	30	60	70	80	90	30	50	90	100	50	50	pest or weed control at 500 g/ha [13]: 60%; plant injury at 125 g/ha [14]: 0%; Corn plant response rating (crop injury, 0 = no effect, 100 = complete kill) at 500 g/ha [14]: 70%; pest or weed control at 125 g/ha [15]: 20%; pest or weed control at 500 g/ha [15]: 60%
